Data published in patent US7871981B2, “Inhibition of cell motility, angiogenesis, and metastasis” (The United States of America as represented by the …, priority 1999, dated 2011).

Assays:
HUVE cells = assay: HUVE cell proliferation; assay type: cell-based, human
Protocol: HUVE or HMVE cells were seeded per triplicate in type I collagen-coated 48-well plates (Biocoat) (3000 cells/well) in […] of complete EGM-Bullet Kit medium (BioWhittaker, Walkersville, Md.), allowed to attach for 4 hr and incubated overnight with or without the indicated concentrations of peptide 2. The cultures were rinsed twice in serum-free medium and incubated with EBM medium (BioWhittaker) supplemented with 50 μg/ml heparin, 50 μg/ml ascorbic acid and 10% FCS. After either 4 days (HUVE) or 5 days (HMVE), cells were harvested with trypsin/EDTA and counted with an hemocytometer. The mean number of cells per ml was calculated from 3 independent measures for each of triplicate wells per experimental condition and compared to controls using the Student's unpaired t-test. Results set forth in FIG. 12 are described as the ratio of growth factor-treated to control proliferating cells designated on the y-axis as “Proliferation (Fold Increase)”.

PC3M-luc cells = assay: Subcutaneous tumor model (spontaneous metastasis), PC3M-luc xenograft, bioluminescence imaging; assay type: in vivo, SCID/beige mice; conditions: cells pre-treated 24 h with 1 micromolar
Protocol: PC3M-luc cells were pre-treated for 24 hrs with 1 micromolar C90, then trypsinized, washed in PBS and spun down at 650 rpm to be resuspended in HBSS at the appropriate cell density for injection (1×10^6 cells). Injection was boosted with 10 micromolar C-90. Cell where then injected in the right flank SCID/beige mice (Taconic Inc., Germantown, N.Y.). On indicated days, mice were injected with 150 mg/kg of D-luciferin (potassium salt, Xenogen Corp., Alameda, Calif.) and placed for imaging in the In vivo Imaging System (Xenogen) with total imaging time of 1 or 5 minutes. Total body bioluminescence was quantified by integrating the photonic flux (photons per second) through a region of interest drawn around each mouse.
(§1) Cells prepared for xenograft injections were pretreated with C-90 for 24 h. Cells were injected in to mice (5 per group) by either tail vein (B16-luc, induced metastasis model) or subcutaneously (PC3M-luc, spontaneous metastasis model). Imaging of the PC3M cell metastases in lungs ex vivo (FIG. 14A)) correlated with earlier scans of intact animals (data not shown). Units are proportional to photons emitted within a defined time interval (total flux).

B16-luc cells = assay: Tail vein model (induced metastasis), B16-luc, bioluminescence imaging; assay type: in vivo, SCID/beige mice; conditions: single 24 h pre-treatment, three week period
Protocol: B16-luc cells were pre-treated for 24 hrs with 1 micromolar C90, then trypsinized, washed in PBS and spun down at 650 rpm to be resuspended in HBSS at the appropriate cell density for injection (1×10^6 cells). Injection was boosted with 10 micromolar C90. Cell where then injected in the dorsal tail vein of severe combined immunodeficient (SCID)/beige mice (Taconic Inc., Germantown, N.Y.).
as §1

HMVE cells = assay: HMVE cell migration, modified Boyden chamber; assay type: cell-based, human
Protocol: (§2) The migration assay of HUVE and HMEC-1 cells in modified Boyden chambers was adapted from previously described procedures (Murohara et al., Thromb. Vasc. Biol., 19: 1156-61 (1999), Malinda et al., FASEB J., 13: 53-62 (1999)). In brief, Biocoat Cell Environment control inserts (8 micron pore size; Becton Dickinson) were coated with 0.1% gelatin (Sigma) for at least 1 hour at 37° C. and air dried. Lower chambers contained 0.7 ml RPMI+0.1% BSA, to which 20 ng/ml HGF and/or 300 nM Grb2 inhibitors were added. Cells were pre-treated with the indicated concentrations of Grb2 inhibitors for 18-24 hours, trypsinized, washed twice in RPMI+0.1% BSA, added to upper chambers (5×10^4 cells/well) with or without inhibitors in a final volume of 0.5 ml, and incubated for 4 h at 37° C. Cells on the upper surface of each filter were removed with a cotton swab, while cells that had traversed to the bottom surface of the filter were fixed and stained using Diff-Quik (Dade Diagnostics) and counted using a 10× objective. Mean values from 4 randomly selected fields (1×1.4 mm) were calculated for each of triplicate wells per experimental condition. Shown in FIG. 6 is the ratio of growth factor-treated to control migrating cells designated on the y-axis as “Migration (Fold Increase)” or as the mean number of cells per optical field in FIGS. 8-11.

NIH 3T3 fibroblasts = assay: NIH 3T3 fibroblast migration, modified Boyden chamber; assay type: cell-based
Protocol: as §2
PDGF is implicated in different biological processes such vascular remodeling, wound healing and cancer (for reviews, see Bornfeldt et al., Ann N Y Acad. Sci., 766:416-30, 1995; Gendron, Surv. Ophthalmol., 44:184-5, 1999). Addition of 50 ng/ml PDGF-BB to NIH 3T3 fibroblasts incubated in a modified Boyden chamber results in a dramatic, 20-fold increase in cell migration. […] This observation opens a potential therapeutical use of the Grb2 inhibitor compounds in the treatment of diseases such as cancer, wound healing disorders, vascular complications of diabetes mellitus, vascular nephropathies, and diseases with occurrence of fibrosis.

## NC(=O)C[C@H](NC(=O)C1(NC(=O)[C@H](Cc2ccc(C(C(=O)O)C(=O)O)cc2)NC(=O)C(=O)O)CCCCC1)C(=O)NCCCc1cccc2ccccc12 [peptide 2, (N-oxalyl-4-malonyl)-Phe-Ac6c-Asn-NH-(3-naphthalen-1-yl-propyl)]
HUVE cells; peptide 30 nM
  HGF- VEGF-induced HUVE cell proliferation: failed to significantly (p=0.05) inhibit
HUVE cells; peptide 30 nM, p<0.0001
  bFGF-dependent HUVE cell proliferation: inhibited
HUVE cells; peptide 30 nM, p<0.001
  serum-dependent HUVE cell proliferation: inhibited
HUVE cells; peptide 300 nM
  HGF- VEGF-induced HUVE cell proliferation (cell counts): significant (p<0.0001) reduction in cell counts
PC3M-luc cells
  primary tumor growth (mass, volume ex vivo): did not affect primary tumor growth
PC3M-luc cells; injection boosted with 10 micromolar
  metastatic rate (lung metastases ex vivo, total flux) relative to untreated control cells: significantly reduced the metastatic rate
B16-luc cells
  ability to form lung metastases relative to untreated control cells: significantly reduced ability to form lung metastases
HMVE cells; VEGF
  VEGF-induced cell migration: significantly (p<0.001) reverted
HMVE cells; peptide 300 nM, HGF 0-50 ng/ml
  cell migration induced by HGF: abolished
HMVE cells; peptide 300 nM, bFGF 5 ng/ml
  abolition of the effect of the optimal concentration of bFGF: 72%
HMVE cells; peptide 300 nM, bFGF 0.2-50 ng/ml
  biphasic stimulatory activity of bFGF on migration: significantly (p<0.001) inhibited
NIH 3T3 fibroblasts; co-added with PDGF-BB 50 ng/ml
  PDGF-BB-induced NIH 3T3 cell migration: inhibits NIH 3T3 cell migration in a significant (p<0.001), dose-dependent manner
NIH 3T3 fibroblasts; peptide 30 nM, PDGF-BB 50 ng/ml
  reduction in the mean number of cells per field: 60%
